Where two headings read alike, the source gives them in different places.
Tests used:
[1] = test system: experimental autoimmune encephalomyelitis (EAE); experiment: Rat experimental autoimmune encephalomyelitis (EAE) model, preventive treatment; format: in vivo
Protocol: A further study was carried out to study the impact of Lp-PLA2 inhibitors on modulating M1/M2 imbalance. In this study, rats were induced to develop experimental autoimmune encephalomyelitis (EAE) by immunization with myelin basic protein (MBP) antigen and treated with a known Lp-PLA2 inhibitor: 5-((9-Methoxy-4-oxo-6,7-dihydro-4H-pyrimido[6,1-a]isoquinolin-2-yl)oxy)-2-(3-(trifluoromethyl)phenoxy)benzonitrile (See PCT application no. PCT/CN2011/001597). In this preventive treatment model, the compound was administered at day 0 (day of immunization) and continued to administer until day 22. The study lasted for 25 days. Rats were subsequently monitored for symptoms of EAE. Rats were immunized with MBP to develop EAE and symptoms were monitored daily. Plasma Lp-PLA2 activity, OxLDL, and LysoPC concentration were determined at different time points through the course of EAE.

[2] = test system: proinflammatory (M1) and anti-inflammatory (M2) markers; experiment: Ex vivo analysis of M1 and M2 markers in macrophages of EAE rats by realtime PCR; design: species or system rat; details: splenic macrophages day 13 post MBP-immunization and CNS infiltrating macrophages
Protocol: Ex vivo analysis of proinflammatory (M1) and anti-inflammatory (M2) markers in control and compound treated EAE rats. Splenic macrophages were harvested at day 13 post MBP-immunization and assayed for expression of a variety of markers by realtime PCR. CNS infiltrating cells were harvested and macrophages were analyzed for expression of M1 and M2 markers by realtime PCR.

[3] = molecular target: T1, recombinant human Lp-PLA2 (Homo sapiens, UniProt Q13093); experiment: Recombinant human Lp-PLA2 assay (rhLp-PLA2, PED6 assay); format: biochemical
T1 sequence (Q13093 22-441): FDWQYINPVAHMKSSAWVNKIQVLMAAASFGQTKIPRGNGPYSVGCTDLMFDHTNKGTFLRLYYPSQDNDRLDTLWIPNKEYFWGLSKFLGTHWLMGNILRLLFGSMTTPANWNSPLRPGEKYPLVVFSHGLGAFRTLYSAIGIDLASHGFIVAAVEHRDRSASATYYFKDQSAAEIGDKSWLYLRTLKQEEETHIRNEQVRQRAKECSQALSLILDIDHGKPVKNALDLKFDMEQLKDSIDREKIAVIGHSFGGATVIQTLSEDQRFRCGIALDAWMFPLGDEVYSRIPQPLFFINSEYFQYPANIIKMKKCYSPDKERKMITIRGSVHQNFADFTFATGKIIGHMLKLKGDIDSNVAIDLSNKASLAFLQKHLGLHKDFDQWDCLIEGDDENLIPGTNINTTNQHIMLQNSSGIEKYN
Summary of the method: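 Enzyme (4 nM or 110 pM, as stated for the 5 μL addition) preincubated 30 min with compound in 50 mM HEPES pH 7.4, 150 mM NaCl, 1 mM CHAPS, then PED6 substrate (4 or 5 μM in the addition) added. Fluorescence (ex 480/em 540) read after 20 min, room temperature; pIC50 from curve fitting.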

[4] = molecular target: T2, Lp-PLA2 in human plasma (Homo sapiens, UniProt Q13093); experiment: Lp-PLA2 human plasma assay (Thio-PAF assay); format: biochemical; details: pooled human plasma; read-out: pIC50 values in the thio-PAF assay (converted)
T2 construct: from tissue; host or cells: pooled human plasma
T2 sequence (Q13093 22-441): T1 sequence (Q13093 22-441)
Summary of the method: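 Pooled human plasma preincubated 30 min with compound, then 2-thio-PAF substrate added with CPM and NEM in 50 mM HEPES pH 7.4, 150 mM NaCl, 1 mM CHAPS. Quenched with TFA after 2 min, incubated 40 min at room temperature, and read by fluorescence at ex 380/em 485 nm. Values given as pIC50.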

[5] = read-out: pIC50 values in the recombinant human Lp-PLA2 assay (converted)

IC50 [3, 5] [nM]	IC50 [4] [nM]	Structure (SMILES)	further results
		COc1ccc2c(c1)CCn1c-2cc(Oc2ccc(Oc3cccc(C(F)(F)F)c3)c(C#N)c2)nc1=O [5-((9-Methoxy-4-oxo-6,7-dihydro-4H-pyrimido[6,1-a]isoquinolin-2-yl)oxy)-2-(3-(trifluoromethyl)phenoxy)benzonitrile]	Lp-PLA2 activity in rat EAE plasma ([1]; rat EAE plasma): decreased; LysoPC levels in rat EAE plasma ([1]; rat EAE plasma): decreased; clinical disease ([1]; rat EAE, administered day 0 until day 22): reduction in clinical disease; M1 markers [2]: decrease; M2 markers [2]: increase
≤ 1	≤ 100	C[C@H]1CCn2c(cc(OCc3cc(F)c(Oc4cnc(C(F)(F)F)nc4)c(F)c3)nc2=O)N1C [E104, (S)-8-((3,5-difluoro-4-((2-(trifluoromethyl)pyrimidin-5-yl)oxy)benzyl)oxy)-1,2-dimethyl-3,4-dihydro-1H-pyrimido[1,6-a]pyrimidin-6(2H)-one]	
≤ 1	≤ 100	C[C@H]1CCn2c(cc(OCc3ccc(Oc4ccc(F)cc4)c(C#N)c3)nc2=O)N1C [E126, (S)-5-(((1,2-dimethyl-6-oxo-2,3,4,6-tetrahydro-1H-pyrimido[1,6-a]pyrimidin-8-yl)oxy)methyl)-2-(4-fluorophenoxyl)benzonitrile]	
≤ 1	≤ 100	CC1CCn2c(cc(OCc3ccc(Oc4ccc(C(F)(F)F)cc4)c(C#N)c3)nc2=O)N1 (stereo not drawn) [E2, 5-(((2-methyl-6-oxo-2,3,4,6-tetrahydro-1H-pyrimido[1,6-a]pyrimidin-8-yl)oxy)methyl)-2-(4-(trifluoromethyl)phenoxy)benzonitrile]	IC50 ([3]; read-out: rhLp-PLA2 (PED6 assay) (pIC50) (converted)): 0.126 nM
≤ 1	≤ 10	CN1c2cc(OCc3cccc(C#N)c3)nc(=O)n2CCC1(C)C [E133, 3-(((1,2,2-trimethyl-6-oxo-2,3,4,6-tetrahydro-1H-pyrimido[1,6-a]pyrimidin-8-yl)oxy)methyl)benzonitrile]	
≤ 1	≤ 100	C[C@@H]1CCn2c(cc(OCc3cc(F)c(Oc4ccc(Cl)cc4)c(F)c3)nc2=O)N1C [E124, (R)-8-((4-(4-chlorophenoxy)-3,5-difluorobenzyl)oxy)-1,2-dim ethyl-3,4-dihydro-1H-pyrimido[1,6-a]pyrimidin-6(2H)-one]	
≤ 1	≤ 100	C[C@H]1CCn2c(cc(OCc3cc(F)c(Oc4ccc(F)cc4)c(F)c3)nc2=O)N1C [E94, (S)-8-((3,5-difluoro-4-(4-fluorophenoxy)benzyl)oxy)-1,2-dimethyl-3,4-dihydro-1H-pyrimido[1,6-a]pyrimidin-6(2H)-one]	
≤ 1	≤ 10	C[C@H]1CCn2c(cc(OCc3ccc(Oc4cccc(C(F)(F)F)c4)c(C#N)c3)nc2=O)N1C [E98, (S)-5-(((1,2-dimethyl-6-oxo-2,3,4,6-tetrahydro-1H-pyrimido[1,6-a]pyrimidin-8-yl)oxy)methyl)-2-(3-(trifluoromethyl)phenoxy)benzonitrile]	
≤ 1	≤ 10	CN1c2cc(OCc3ccc(Oc4ccc(C(F)(F)F)nc4)c(C#N)c3)nc(=O)n2CCC1(C)C [E112, 2-((6-(trifluoromethyl)pyridin-3-yl)oxy)-5-(((1,2,2-trimethyl-6-oxo-2,3,4,6-tetrahydro-1H-pyrimido[1,6-a]pyrimidin-8-yl)oxy)methyl)benzonitrile]	
≤ 1	≤ 100	C[C@@H]1CCn2c(cc(OCc3cc(F)c(Oc4cccc(F)c4)c(F)c3)nc2=O)N1C [E103, (R)-8-((3,5-difluoro-4-(3-fluorophenoxy)benzyl)oxy)-1,2-dimethyl-3,4-dihydro-1H-pyrimido[1,6-a]pyrimidin-6(2H)-one]	
≤ 1	≤ 100	C[C@H]1CCn2c(cc(OCc3ccc(F)c(F)c3)nc2=O)N1C [E37, (S)-8-((3,4-difluorobenzyl)oxy)-1,2-dimethyl-3,4-dihydro-1H-pyrimido[1,6-a]pyrimidin-6(2H)-one]	
≤ 1	≤ 10	C[C@@H]1CCn2c(cc(OCc3ccc(Oc4ccc(C(F)(F)F)nc4)c(F)c3)nc2=O)N1C [E145, (R)-8-((3-fluoro-4-((6-(trifluoromethyl)pyridin-3-yl)oxy)benzyl)oxy)-1,2-dimethyl-3,4-dihydro-1H-pyrimido[1,6-a]pyrimidin-6(2H)-one]	
≤ 1	≤ 100	C[C@@H]1CCn2c(cc(OCc3cc(F)c(Oc4ccc(F)cc4)c(F)c3)nc2=O)N1C [E122, (R)-8-((3,5-difluoro-4-(4-fluorophenoxy)benzyl)oxy)-1,2-dimethyl-3,4-dihydro-1H-pyrimido[1,6-a]pyrimidin-6(2H)-one]	

— US20150344485A1, “BICYCLIC PYRIMIDONE COMPOUNDS AS INHIBITORS OF LP-PLA2” (GLAXOSMITHKLINE INTELLECTUAL PROPERTY DEVELOPMENT LIMITED, priority 2013, published 2015)
